These are literature values, as cited in patent US20110250260A1, “INHIBITION OF BRAIN ENZYMES INOLVED IN CEREBRAL AMYLOID ANGIOPATHY AND MACULAR DEGENERATION” (Loma Linda University Medical Center, priority 2006, published 2011).

Series [1] deals with liver function during hepatitis C virus infection. Particulars: human trials.
The subject of another series is Heme oxidase. Particulars: experimental brain hematomas.
In series [2] the test system is heart failure in a murine model.
The subject of series [3] is cell death after ischemia in multiple tissues. The settings on record: animal models.

Where a SMILES comes first, the peptide text is derived from it. The star is where a group is joined. Cbz = O=C(OCc1ccccc1)*; CH2F = FC*

As for `C[C@H](NC(=O)C(=O)Nc1ccccc1C(C)(C)C)C(=O)N[C@@H](CC(=O)O)C(=O)COc1c(F)c(F)cc(F)c1F` [IDN-6556], in series [1], the preserving liver function result is given as “showing promise” and the side-effects entry was “without exhibiting serious side-effects”. Regarding tin-mesoporphyrin, in the series on Heme oxidase, the “effects to the brain of heme oxidase inhibition” value was “beneficial effects to the brain”. Take `Cc1c(C(=O)N[C@H](C(=O)NC(CC(=O)O)C(=O)CF)C(C)C)n(C)c2ccccc12` (stereo partly shown) [IDN-1965]: the mortality result in series [2] (compared with vehicle-treated mice) was “eliminate the 30% mortality”. In series [2] (continuous infusion), the “reduction of caspase 3-like activity” value is listed as 90% and the “reduction of terminal dUTP nick end-labeling-positive myocytes” value is 90%. `COC(=O)C[C@H](NC(=O)[C@H](C)NC(=O)[C@@H](NC(=O)OCc1ccccc1)C(C)C)C(=O)CF` [zVAD-FMK] (Cbz-Val-Ala-Asp(OMe)-CH2F): the “reducing cell death after ischemia” value in series [3] is “highly effective”.
